Consider 34 compounds from ChEMBL document CHEMBL1156067, “Pyrimidine-based antagonists of h-MCH-R1 derived from ATC0175: in vitro profiling and in vivo evaluation” (Bioorg Med Chem Lett, 2009).

The source made the active and inactive calls. No cut-off for these calls is given here. Where only a bound is given, the exact number is not on record here.

Experiment [1] deals with T1, Melanin-concentrating hormone receptor 1 (Homo sapiens, UniProt Q99705). Put plainly: Antagonist activity at CART form of human MCH1 receptor expressed in HEK293 cells coexpressing Galphaq assessed as inhibition of MCH-induced intracellular calcium level by FLIPR assay. It counts as functional, cell-based.
Target sequence in this assay (Q99705 whole entry, looked up): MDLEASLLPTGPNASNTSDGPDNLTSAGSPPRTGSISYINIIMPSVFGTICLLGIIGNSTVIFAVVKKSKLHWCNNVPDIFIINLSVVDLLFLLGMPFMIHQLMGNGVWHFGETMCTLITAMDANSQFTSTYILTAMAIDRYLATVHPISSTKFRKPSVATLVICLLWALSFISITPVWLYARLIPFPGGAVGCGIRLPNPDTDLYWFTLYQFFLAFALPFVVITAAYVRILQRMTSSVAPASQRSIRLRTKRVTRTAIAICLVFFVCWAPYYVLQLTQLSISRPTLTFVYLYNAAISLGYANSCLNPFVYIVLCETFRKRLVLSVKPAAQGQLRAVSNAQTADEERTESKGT
The target in experiment [2] is T2, Alpha-1A adrenergic receptor (Homo sapiens, UniProt P35348).
T2 sequence (P35348 whole entry): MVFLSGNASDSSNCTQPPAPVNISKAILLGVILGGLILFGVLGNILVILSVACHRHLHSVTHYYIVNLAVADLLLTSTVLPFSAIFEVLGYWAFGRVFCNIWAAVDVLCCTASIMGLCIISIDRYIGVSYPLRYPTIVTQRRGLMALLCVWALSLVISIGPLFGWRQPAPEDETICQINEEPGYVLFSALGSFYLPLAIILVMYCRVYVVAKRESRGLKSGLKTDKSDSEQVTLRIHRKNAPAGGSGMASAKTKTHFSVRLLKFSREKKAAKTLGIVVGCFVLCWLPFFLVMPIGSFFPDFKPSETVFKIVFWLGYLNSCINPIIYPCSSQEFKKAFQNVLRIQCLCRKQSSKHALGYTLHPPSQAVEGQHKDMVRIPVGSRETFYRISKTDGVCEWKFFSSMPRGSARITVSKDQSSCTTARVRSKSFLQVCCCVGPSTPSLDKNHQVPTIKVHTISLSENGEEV
Nature of the experiment: Displacement of [3H]prazosin from human adrenergic alpha1A receptor. In general terms: Loss of bound radioactivity is the signal in a displacement assay; it reports binding, not function.

Experiment [3] addresses 5-hydroxytryptamine receptor 2B (Homo sapiens, UniProt P41595). Nature of the experiment: Displacement of [3H]rauwolsine from human 5HT2B receptor.
Experiment [4] deals with Histamine H1 receptor (Homo sapiens, UniProt P35367). Put plainly: Displacement of [3H]pyrilamine from human histamine H1 receptor.
Experiment [5] concerns the target T3, Alpha-2A adrenergic receptor (Homo sapiens, UniProt P08913).
T3 sequence (P08913 whole entry): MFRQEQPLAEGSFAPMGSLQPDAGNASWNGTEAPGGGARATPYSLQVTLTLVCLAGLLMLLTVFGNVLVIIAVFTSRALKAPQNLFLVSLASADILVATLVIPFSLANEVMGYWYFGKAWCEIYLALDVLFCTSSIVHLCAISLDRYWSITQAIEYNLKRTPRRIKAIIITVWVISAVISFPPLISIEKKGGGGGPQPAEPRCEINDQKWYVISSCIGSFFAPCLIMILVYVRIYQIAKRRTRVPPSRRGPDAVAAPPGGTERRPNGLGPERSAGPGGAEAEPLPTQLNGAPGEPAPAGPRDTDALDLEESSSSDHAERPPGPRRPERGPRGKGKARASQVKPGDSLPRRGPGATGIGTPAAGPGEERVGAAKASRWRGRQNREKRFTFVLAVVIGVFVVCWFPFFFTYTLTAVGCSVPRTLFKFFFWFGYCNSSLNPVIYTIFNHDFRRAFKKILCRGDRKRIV
Nature of the experiment: Displacement of [3H]MK-912 from human adrenergic alpha2A receptor.

In experiment [6] the target is T1, Melanin-concentrating hormone receptor 1. Put plainly: Antagonist activity at CART form of human MCH1 receptor expressed in HEK293 cells coexpressing Galphaq assessed as inhibition of MCH-induced intracellular calcium level up to 10 uM by FLIPR assay. It counts as functional, cell-based. Background: Calcium assays in cells follow changes in intracellular calcium, usually with a dye or a luminescent sensor.
Target sequence in this assay (Q99705 whole entry): as the sequence (Q99705 whole entry, looked up) above

In experiment [7] the test system is Rattus norvegicus. Put plainly: Reduction in food intake in diet-induced obese Wistar rat chronic feeding model at 6 mg/kg, po once daily after 8 days. In kind it is functional, organism-based. The arrangement: dose 6 mg/kg.
Experiment [8] deals with Rattus norvegicus. Nature of the experiment: Reduction in food intake in diet-induced obese Wistar rat chronic feeding model at 6 mg/kg, po once daily measured after 14 days. In kind it is functional, organism-based. The arrangement: dose 6 mg/kg.

Histamine H1 receptor, sequence (P35367 whole entry): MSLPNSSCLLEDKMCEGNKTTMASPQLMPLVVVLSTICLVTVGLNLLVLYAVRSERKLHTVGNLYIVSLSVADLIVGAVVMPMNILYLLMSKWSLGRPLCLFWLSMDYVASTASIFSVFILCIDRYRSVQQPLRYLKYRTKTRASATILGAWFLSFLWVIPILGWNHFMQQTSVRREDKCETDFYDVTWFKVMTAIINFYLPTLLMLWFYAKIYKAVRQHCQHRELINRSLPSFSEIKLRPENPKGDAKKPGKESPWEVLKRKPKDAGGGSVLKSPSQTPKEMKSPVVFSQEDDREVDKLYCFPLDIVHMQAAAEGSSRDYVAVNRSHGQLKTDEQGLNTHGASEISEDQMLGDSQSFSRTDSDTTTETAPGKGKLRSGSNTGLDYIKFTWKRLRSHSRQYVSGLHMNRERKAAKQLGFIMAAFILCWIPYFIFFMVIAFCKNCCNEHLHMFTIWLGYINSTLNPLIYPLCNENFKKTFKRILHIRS
5-hydroxytryptamine receptor 2B, sequence (P41595 whole entry): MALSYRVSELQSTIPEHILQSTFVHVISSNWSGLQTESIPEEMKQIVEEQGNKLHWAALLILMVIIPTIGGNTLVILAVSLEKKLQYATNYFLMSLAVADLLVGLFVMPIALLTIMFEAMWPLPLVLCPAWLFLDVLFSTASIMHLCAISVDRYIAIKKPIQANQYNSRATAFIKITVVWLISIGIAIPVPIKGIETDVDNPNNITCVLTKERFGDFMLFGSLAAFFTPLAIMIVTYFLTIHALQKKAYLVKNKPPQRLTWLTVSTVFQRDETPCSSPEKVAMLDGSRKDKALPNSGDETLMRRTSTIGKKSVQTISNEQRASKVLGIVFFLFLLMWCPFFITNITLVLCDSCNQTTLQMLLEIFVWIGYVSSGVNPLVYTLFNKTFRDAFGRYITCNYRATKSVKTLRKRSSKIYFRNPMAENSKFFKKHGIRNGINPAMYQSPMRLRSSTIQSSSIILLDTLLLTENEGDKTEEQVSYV

By IC50 is commonly meant the concentration that gives 50% inhibition. In the case of `Cc1cc(N(C)C)nc(N[C@H]2CC[C@@H](NC(=O)c3cccc(Cl)c3)CC2)n1`, the 50% inhibitory concentration (IC50) in experiment [1] was determined as 6.5 nM. Still for that read-out and setting: the value for `CN(C)c1cc(N(C)C)nc(N[C@H]2CC[C@@H](NC(=O)c3ccc(F)c(F)c3)CC2)n1` was 58 nM. `Cc1cc(N(C)C)nc(N[C@H]2CC[C@@H](NC(=O)c3ccc(F)cc3)CC2)n1`: in experiment [1], the IC50 amounted to 25 nM. As to `Cc1cnc(N[C@H]2CC[C@@H](NC(=O)c3ccc(F)cc3)CC2)nc1N(C)C`, the 50% inhibitory concentration (IC50) in experiment [2] worked out at 7500 nM; in experiment [3] it was 300 nM; in experiment [1], 6 nM; in experiment [4], 810 nM; in experiment [5] it was 470 nM. On to `Cc1cc(N(C)C)nc(N[C@H]2CC[C@@H](NC(=O)c3ccc(OC(F)(F)F)cc3)CC2)n1`, for which, in experiment [1], the IC50 is 230 nM. `Cc1cnc(N[C@H]2CC[C@@H](NC(=O)c3ccc(Cl)cc3)CC2)nc1N(C)C`: the IC50 in experiment [2] is over 10000 nM; in experiment [3], 300 nM; in experiment [1], 10 nM; in experiment [4] it was 760 nM; in experiment [5], 1590 nM. As for `Cc1cnc(N[C@H]2CC[C@@H](CNC(=O)c3cc(C(F)(F)F)cc(C(F)(F)F)c3)CC2)nc1N`, the IC50 in experiment [1] came out at 600 nM. `Cc1cnc(N[C@H]2CC[C@@H](CNC(=O)c3cc(Cl)cc(Cl)c3)CC2)nc1N(C)C`: in experiment [1], the IC50 was found to be 4 nM.

Turning to `Cc1cc(N(C)C)nc(N[C@H]2CC[C@@H](CNC(=O)c3ccc(F)c(F)c3)CC2)n1`, in experiment [1], the concentration for half-maximal inhibition (IC50) was determined as 210 nM. For the compound `Cc1cccc(C(=O)N[C@H]2CC[C@@H](Nc3ncc(C)c(N(C)C)n3)CC2)c1`, the IC50 in experiment [2] came to 2790 nM; in experiment [3], 31 nM; in experiment [1], 2.9 nM; in experiment [4] it was 1600 nM; in experiment [5] it was 580 nM. As to `CNc1nc(N[C@H]2CC[C@@H](NC(=O)c3ccc(F)c(F)c3)CC2)ncc1C`, the outcome in experiment [6] was inactive. `COc1cccc(C(=O)N[C@H]2CC[C@@H](Nc3nc(C)cc(N(C)C)n3)CC2)c1`: in experiment [1], the half-inhibitory concentration (IC50) stood at 7.6 nM. For the compound `Cc1cc(N(C)C)nc(N[C@H]2CC[C@@H](NC(=O)c3ccc(Cl)cc3)CC2)n1`, the half-maximal inhibitory concentration (IC50) in experiment [2] came out at 3000 nM; in experiment [3] it was 170 nM; in experiment [1], 16 nM; in experiment [4], 800 nM; in experiment [5], 730 nM. On to `CCc1cnc(N[C@H]2CC[C@@H](NC(=O)c3ccc(F)c(F)c3)CC2)nc1N(C)C`, for which the IC50 in experiment [1] was found to be 100 nM.

Take `Cc1cc(N(C)C)nc(N[C@H]2CC[C@@H](NC(=O)c3cc(C(F)(F)F)cc(C(F)(F)F)c3)CC2)n1`: the IC50 was 1320 nM in experiment [2]; over 10000 nM in experiment [3]; 8 nM in experiment [1]; 1210 nM in experiment [4]; 200 nM in experiment [5].

On to `Cc1cnc(N[C@H]2CC[C@@H](CNC(=O)c3cccc(C(F)(F)F)c3)CC2)nc1N(C)C`, for which the IC50 in experiment [1] was found to be 26 nM. Same read-out and setting: the value for `Cc1cnc(N[C@H]2CC[C@@H](NC(=O)c3ccc(F)c(F)c3)CC2)nc1N(C)C` was 2 nM. With `CCNc1nc(N[C@H]2CC[C@@H](NC(=O)c3ccc(F)c(F)c3)CC2)ncc1C`, the outcome in experiment [6] was inactive. For `Cc1ccc(C(=O)N[C@H]2CC[C@@H](Nc3ncc(C)c(N(C)C)n3)CC2)cc1`, the IC50 in experiment [2] was over 10000 nM; in experiment [3], 120 nM; in experiment [1], 13 nM; in experiment [4], 170 nM; in experiment [5], 1770 nM.

For the compound `Cc1cc(N(C)C)nc(N[C@H]2CC[C@@H](NC(=O)c3ccc(Cl)c(Cl)c3)CC2)n1`, the 50% inhibitory concentration (IC50) in experiment [2] is over 10000 nM; in experiment [3], 130 nM; in experiment [1] it was 4.8 nM; in experiment [4], 390 nM; in experiment [5], 130 nM. For `Cc1nc(N[C@H]2CC[C@@H](NC(=O)c3ccc(F)c(F)c3)CC2)nc(N(C)C)c1C`, the IC50 in experiment [1] worked out at 2.3 nM. On the same count and under the same terms, the value for `Cc1cc(N(C)C)nc(N[C@H]2CC[C@@H](CNC(=O)c3cc(Cl)cc(Cl)c3)CC2)n1` was 64 nM. `Cc1cnc(N[C@H]2CC[C@@H](NC(=O)c3ccc(F)c(F)c3)CC2)nc1NC(C)C`: the outcome in experiment [6] was inactive.

Turning to `Cc1cnc(N[C@H]2CC[C@@H](CNC(=O)c3cc(C(F)(F)F)cc(C(F)(F)F)c3)CC2)nc1N1CCCC1`, the result in experiment [6] was inactive. For `Cc1cccc(C(=O)N[C@H]2CC[C@@H](Nc3nc(C)cc(N(C)C)n3)CC2)c1`, the half-inhibitory concentration (IC50) in experiment [1] amounted to 9.6 nM.

Consider `CC(C)CC(N(C)C)C1(c2ccc(Cl)cc2)CCC1` (configuration not stated), for which, in experiment [7], the result was Active. The result in experiment [8] was inactive. Consider `CN(C)CC1CCc2cc(NC(=O)c3ccc(-c4ccc(F)cc4)cc3)ccc2C1` (configuration not stated), for which, in experiment [1], the half-inhibitory concentration (IC50) was found to be 5.5 nM. With `Cc1cnc(N[C@H]2CC[C@@H](CNC(=O)c3ccc(F)c(F)c3)CC2)nc1N(C)C`, the IC50 was 3600 nM in experiment [2]; 320 nM in experiment [3]; 120 nM in experiment [1]; 920 nM in experiment [4]; 210 nM in experiment [5]. As a reminder, the pA2 is a measure of antagonist potency on a negative log scale. Take `COCC1=C(C(=O)OC)[C@H](c2ccc(F)c(F)c2)N(C(=O)NCCCN2CCC(c3cccc(NC(C)=O)c3)CC2)C(=O)N1` [SNAP-7941]: in experiment [1], the pA2 is listed as 9.24. On to `Cc1cc(N(C)C)nc(N[C@H]2CC[C@@H](NC(=O)c3ccc(F)c(F)c3)CC2)n1`, for which the IC50 in experiment [1] came to 2.5 nM. On the same count and under the same terms, the value for `CNc1nc(N[C@H]2CC[C@@H](CNC(=O)c3cc(C(F)(F)F)cc(C(F)(F)F)c3)CC2)ncc1C` was 200 nM. As for `CN(C)c1ccnc(N[C@H]2CC[C@@H](NC(=O)c3ccc(F)c(F)c3)CC2)n1`, the outcome in experiment [6] was inactive. On the same count and under the same terms, the value for `CCNc1nc(N[C@H]2CC[C@@H](CNC(=O)c3cc(C(F)(F)F)cc(C(F)(F)F)c3)CC2)ncc1C` was “inactive”.

With `CCN(C)c1nc(N[C@H]2CC[C@@H](NC(=O)c3ccc(F)c(F)c3)CC2)ncc1C`, in experiment [1], the concentration for half-maximal inhibition (IC50) is 46 nM.
